# Experiments:
# Assay type in all cases: in vivo, human
# [1] = system: obese or overweight adults; test: Exposure–body weight loss analysis, clinical Trials 1–3; details: Trial 1, liraglutide 3.0 mg, overall female population
# [2] = system: obese or overweight adults with type 2 diabetes; test: Exposure–HbA1c analysis, Trial 2; details: Trial 2, type 2 diabetes, corresponds to ∼500 nM × h
# [3] = system: obese or overweight adults; test: Exposure–safety outcome analyses
structure (smiles),measurement,setting,value
"CCCCCCCCCCCCCCCC(=O)N[C@@H](CCC(=O)NCCCC[C@H](NC(=O)[C@H](C)NC(=O)[C@H](C)NC(=O)[C@H](CCC(N)=O)NC(=O)CNC(=O)[C@H](CCC(=O)O)NC(=O)[C@H](CC(C)C)NC(=O)[C@H](Cc1ccc(O)cc1)NC(=O)[C@H](CO)NC(=O)[C@H](CO)NC(=O)[C@@H](NC(=O)[C@H](CC(=O)O)NC(=O)[C@H](CO)NC(=O)[C@@H](NC(=O)[C@H](Cc1ccccc1)NC(=O)[C@@H](NC(=O)CNC(=O)[C@H](CCC(=O)O)NC(=O)[C@H](C)NC(=O)[C@@H](N)Cc1cnc[nH]1)[C@@H](C)O)[C@@H](C)O)C(C)C)C(=O)N[C@@H](CCC(=O)O)C(=O)N[C@@H](Cc1ccccc1)C(=O)N[C@H](C(=O)N[C@@H](C)C(=O)N[C@@H](Cc1c[nH]c2ccccc12)C(=O)N[C@@H](CC(C)C)C(=O)N[C@H](C(=O)N[C@@H](CCCNC(=N)N)C(=O)NCC(=O)N[C@@H](CCCNC(=N)N)C(=O)NCC(=O)O)C(C)C)[C@@H](C)CC)C(=O)O [liraglutide, Liraglutide]",weight loss,[1],9.3 kg
same,weight loss from baseline,[1],9.2%
same,liraglutide plasma concentration at which HbA1c reduction plateaued,[2],~21 nM
same,effect on serum calcitonin levels,"[3]; all three trials, change from baseline over all exposure quantiles",did not result in elevated serum calcitonin levels
same,increase in mean resting pulse versus placebo,"[3]; liraglutide-treated individuals, doses 1.2–3.0 mg, Trials 1–3",2–3 beats per min
